Experimental findings from publication PMC10855908 (International Journal of Molecular Sciences, 2024) are described below.

The subject of assay [1] is C. perfringens MLG0418. The assay is classed as cell-based, Clostridium perfringens.
Assay [2] has as its system C. perfringens MLG0618. It is filed as cell-based, Clostridium perfringens.
Assay [3] concerns C. perfringens MLG0712. It is filed as cell-based, Clostridium perfringens.
The subject of assay [4] is C. perfringens MLG1108. It is filed as cell-based, Clostridium perfringens.
The subject of assay [5] is C. perfringens MLG1619. It is filed as cell-based, Clostridium perfringens.
The test system of assay [6] is C. perfringens MLG1819. It is filed as cell-based, Clostridium perfringens.
Assay [7] has as its system C. perfringens MLG2203. It is filed as cell-based, Clostridium perfringens.
For assay [8], the system named is C. perfringens MLG2314. The assay is classed as cell-based, Clostridium perfringens.
Assay [9] concerns C. perfringens MLG2919. The assay is classed as cell-based, Clostridium perfringens.
Assay [10] relates to C. perfringens MLG3111. It is filed as cell-based, Clostridium perfringens.
Assay [11] concerns C. perfringens MLG3406. It is filed as cell-based, Clostridium perfringens.
For assay [12], the system named is C. perfringens MLG4201. The assay is classed as cell-based, Clostridium perfringens.
For assay [13], the system named is C. perfringens MLG4206. It is filed as cell-based, Clostridium perfringens.
The subject of assay [14] is C. perfringens MLG5719. The assay is classed as cell-based, Clostridium perfringens.
Assay [15] deals with C. perfringens MLG5806. The assay is classed as cell-based, Clostridium perfringens.
Assay [16] concerns C. perfringens MLG6907. It is filed as cell-based, Clostridium perfringens.
The test system of assay [17] is C. perfringens MLG7009. The assay is classed as cell-based, Clostridium perfringens.
Assay [18] has as its system C. perfringens MLG7307. It is filed as cell-based, Clostridium perfringens.
Assay [19] relates to C. perfringens MLG7309. It is filed as cell-based, Clostridium perfringens.
Assay [20] deals with C. perfringens MLG7814. The assay is classed as cell-based, Clostridium perfringens.
Assay [21] concerns C. perfringens MLG0418. It is filed as cell-based, Clostridium perfringens. This is another data set of the same source.
Assay [22] relates to C. perfringens MLG0618. The assay is classed as cell-based, Clostridium perfringens. This is another data set of the same source.
The test system of assay [23] is C. perfringens MLG0712. It is filed as cell-based, Clostridium perfringens. This is another data set of the same source.
The subject of assay [24] is C. perfringens MLG1108. It is filed as cell-based, Clostridium perfringens. The source holds these as a separate data set.
The subject of assay [25] is C. perfringens MLG1619. It is filed as cell-based, Clostridium perfringens. The source holds these as a separate data set.
The test system of assay [26] is C. perfringens MLG1819. The assay is classed as cell-based, Clostridium perfringens. The source holds these as a separate data set.
Assay [27] relates to C. perfringens MLG2203. It is filed as cell-based, Clostridium perfringens. The source holds these as a separate data set.
The test system of assay [28] is C. perfringens MLG2314. The assay is classed as cell-based, Clostridium perfringens. The source holds these as a separate data set.
The subject of assay [29] is C. perfringens MLG2919. The assay is classed as cell-based, Clostridium perfringens. This is another data set of the same source.
Assay [30] concerns C. perfringens MLG3111. It is filed as cell-based, Clostridium perfringens. This is another data set of the same source.
For assay [31], the system named is C. perfringens MLG3406. It is filed as cell-based, Clostridium perfringens. This is another data set of the same source.
In assay [32] the test system is C. perfringens MLG4201. The assay is classed as cell-based, Clostridium perfringens. This is another data set of the same source.
For assay [33], the system named is C. perfringens MLG4206. The assay is classed as cell-based, Clostridium perfringens. This is another data set of the same source.
The subject of assay [34] is C. perfringens MLG5719. The assay is classed as cell-based, Clostridium perfringens. The source holds these as a separate data set.
Assay [35] relates to C. perfringens MLG5806. The assay is classed as cell-based, Clostridium perfringens. This is another data set of the same source.
The subject of assay [36] is C. perfringens MLG6907. The assay is classed as cell-based, Clostridium perfringens. This is another data set of the same source.
Assay [37] deals with C. perfringens MLG7009. It is filed as cell-based, Clostridium perfringens. The source holds these as a separate data set.
Assay [38] relates to C. perfringens MLG7307. The assay is classed as cell-based, Clostridium perfringens. This is another data set of the same source.
Assay [39] concerns C. perfringens MLG7309. The assay is classed as cell-based, Clostridium perfringens. This is another data set of the same source.
Assay [40] relates to C. perfringens MLG7814. The assay is classed as cell-based, Clostridium perfringens. This is another data set of the same source.
The subject of assay [41] is Campylobacter coli ATCC 33559. The conditions noted are these: ATCC 33559, 24 h.
A further assay relates to C. coli ATCC33559. The conditions noted are these: ATCC33559, 24 h, 200 μg/mL.

No end group written: not given here.

The term MIC denotes the smallest concentration in the dilution series that meets the test's criterion for growth inhibition. The low end stands for a more susceptible organism, the high end for a less susceptible organism. For the substance “Nisin (ITSISLCTPGCKTGALMGCNMKTATCHCSIHVSK; thioether (positions not given here); not fully specified (some residues, bridges); UniProt P13068 24-57, looked up)”, the MIC against C. perfringens MLG0418 [1] was 1.56 µg/mL; in the assay with C. perfringens MLG0618 [2], 0.39 µg/mL; in the assay with C. perfringens MLG0712 [3], 0.39 µg/mL; in the assay with C. perfringens MLG1108 [4], 0.78 µg/mL; against C. perfringens MLG1619 [5], 0.19 µg/mL; in the assay on C. perfringens MLG1819 [6], 0.39 µg/mL. In addition, the MIC against C. perfringens MLG2203 [7] was less than 0.09 µg/mL; in the assay on C. perfringens MLG2314 [8] it was 1.56 µg/mL; against C. perfringens MLG2919 [9], 1.56 µg/mL; against C. perfringens MLG3111 [10] it was 0.39 µg/mL; with C. perfringens MLG3406 [11], 3.12 µg/mL; with C. perfringens MLG4201 [12], 0.78 µg/mL. Further, the MIC is 1.56 µg/mL in the assay with C. perfringens MLG4206 [13]; 1.56 µg/mL with C. perfringens MLG5719 [14]; 1.56 µg/mL with C. perfringens MLG5806 [15]; 1.56 µg/mL in the assay on C. perfringens MLG6907 [16]; 1.56 µg/mL in the assay on C. perfringens MLG7009 [17]; 0.78 µg/mL in the assay with C. perfringens MLG7307 [18]. Further, the MIC in the assay with C. perfringens MLG7309 [19] came out at 0.78 µg/mL; in the assay with C. perfringens MLG7814 [20], 3.12 µg/mL. In addition, the Inhibition halos in the assay on C. perfringens MLG0418 [21] was determined as 23 mm; in the assay with C. perfringens MLG0618 [22] it was 14 mm; in the assay with C. perfringens MLG0712 [23], 17 mm; with C. perfringens MLG1108 [24], 16 mm; in the assay with C. perfringens MLG1619 [25], 20 mm; with C. perfringens MLG1819 [26], 19 mm. For the same substance, the Inhibition halos in the assay with C. perfringens MLG2203 [27] was found to be 24 mm; in the assay on C. perfringens MLG2314 [28] it was 20 mm; in the assay with C. perfringens MLG2919 [29], 21 mm; in the assay with C. perfringens MLG3111 [30], 27 mm; with C. perfringens MLG3406 [31], 19 mm; in the assay with C. perfringens MLG4201 [32], 18 mm. The Inhibition halos with C. perfringens MLG4206 [33] was found to be 25 mm; in the assay on C. perfringens MLG5719 [34], 19 mm; in the assay on C. perfringens MLG5806 [35], 19 mm; with C. perfringens MLG6907 [36], 23 mm; in the assay with C. perfringens MLG7009 [37] it was 20 mm; in the assay with C. perfringens MLG7307 [38], 20 mm. Moreover, the Inhibition halos with C. perfringens MLG7309 [39] is given as 17 mm; with C. perfringens MLG7814 [40] it was 23 mm.

“MGAIAKLVAKFGWPIVKKYYKQIMQFIGEGWAINKIIEWIKKHI [Enterocin L50A]” registered an MIC in [41] of 25 µg/mL. The same substance yielded an Inhibition halos in the assay with C. coli ATCC33559 of 10 mm.
